# Reference: patent US20120003310A1 (priority 2009, published 2012)
# Assays:
# [1] = citrate salt of the drug substance, per reference; cited from earlier work
# [2] = Aqueous solubility of rasagiline base and rasagiline salts
# [3] = AZILECT Product Label, May 2006; cited from earlier work
# [4] = such as hexane, toluene and ethylacetate
# [5] = Rasagiline citrate salt formation in solvents: extractable free rasagiline base (toluene extraction, TLC), pH, NMR equivalents; conditions: for Extracted R-PAI (%) / Extracted R-PAI (amount): free rasagiline base extracted or filtered from the citrate salt solution, solvent and mole proportions per example; for pH (after extraction of R-PAI): value in parentheses
# Text: (§1) The combined toluenic extract was evaporated to dryness.
# as §1
# [6] = per reference; cited from earlier work
# [7] = Hygroscopicity: citrate salts exposed to atmospheric air in open dishes at ambient temperature; assay type: physicochemical; conditions: for Changes on exposure to atmosphere (appearance): open dish, ambient temperature
# Text: (§2) The changes were observed and recorded.
# [8] = Appearance of citrate salts stored in closed sealed glass vials in refrigerator at 7±2° C.; assay type: physicochemical; conditions: sealed glass vial, refrigerator 7±2° C.
# Text: as §2
# [9] = per reference; cited from earlier work; remark: listed apart in the source
# [10] = time of exposure 1:50-2:00 hrs:min
compound,measurement,setting,value
O=C(O)CC(O)(CC(=O)O)C(=O)O.c1cnc2cc3c(cc2n1)C1CNCC3C1,Polynorpb,[1],Crystalline
Cc1[nH]c(C=C2C(=O)Nc3ccc(F)cc32)c(C)c1C(=O)NCCN1CCCC1,Polynorpb,[1],Crystalline
"C#CCN[C@@H]1CCc2ccccc21 [rasagiline, R(+)-N-propargyl-1-aminoindan]",amount dissolving in aqueous reaction solution of citric acid,[2],more than 10 wt %
same,absolute bioavailability,[3],about 36%
same,solubility in non-polar organic solvents,[4],very soluble
C#CCN[C@@H]1CCc2ccccc21.O=C(O)CC(O)(CC(=O)O)C(=O)O [Example 19.6],Extracted R-PAI (%),[5],(43.3%)
same,Extracted R-PAI (amount),[5],4.44 g
Cc1ccc(NC(=O)c2ccc(CN3CCN(C)CC3)cc2)cc1Nc1nccc(-c2cccnc2)n1,Polynorpb,[1],Crystalline
C#CCN[C@@H]1CCc2ccccc21.O=C(O)CC(O)(CC(=O)O)C(=O)O [Example 19.13],Extracted R-PAI (%),[5],(48%)
same,Extracted R-PAI (amount),[5],2.47 g
C#CCN[C@@H]1CCc2ccccc21 [Mesylate],Hygroscopicity by KF,[6],Not hygroscopic
C#CCN[C@@H]1CCc2ccccc21.O=C(O)CC(O)(CC(=O)O)C(=O)O [Example 4b],Changes on exposure to atmosphere (appearance),[7]; time of exposure 0:00 hrs:min,Powder
same,Changes on exposure to atmosphere (appearance),[7]; [10],Semi-solid
same,Changes on exposure to atmosphere (appearance),[7]; time of exposure 6:00 hrs:min,Syrup
same,Changes on exposure to atmosphere (appearance),[7]; time of exposure 7:00 hrs:min,Syrup
same,Appearance,[8]; storage 0 months,White powder
same,Appearance,[8]; storage 3 months,White powder
same,Appearance,[8]; storage 6 months,White powder
N#Cc1ccc2[nH]c(O)c(-c3ccc(CN4CCOCC4)cn3)c2c1,Polynorpb,[1],Crystalline
C[C@@H]1CCN(C(=O)CC#N)C[C@@H]1N(C)c1ncnc2[nH]ccc12,Polynorpb,[1],Crystalline
C#CCN[C@@H]1CCc2ccccc21.O=C(O)CC(O)(CC(=O)O)C(=O)O,free rasagiline that may be extracted from the aqueous solution of the salt,[5],A few percent
same,stability of the salt in solvents,"[5]; aqueous and other solutions (alcohol, MEK, acetone)",stable in most solvents
C#CCN[C@@H]1CCc2ccccc21.O=C(O)CC(O)(CC(=O)O)C(=O)O [Example 19.7],Extracted R-PAI (%),[5],(38.2%)
same,Extracted R-PAI (amount),[5],3.92 g
Oxalate,Hygroscopicity by KF,[6],Not hygroscopic
C#CCN[C@@H]1CCc2ccccc21.CCS(=O)(=O)O [Esylate],Water solubility,[9],>=300 mg/ml
Tosylate,Water solubility,[9],60 to 70 mg/mL
C#CCN[C@@H]1CCc2ccccc21.O=C(O)CC(O)(CC(=O)O)C(=O)O [Example 19.4],Extracted R-PAI (%),[5],(22%)
same,Extracted R-PAI (amount),[5],1.51 g
C#CCN[C@@H]1CCc2ccccc21.O=C(O)CC(O)(CC(=O)O)C(=O)O [Example 19.1],Extracted R-PAI (%),[5],1.75%
same,Extracted R-PAI (amount),[5],0.06 g
Cl [Chloride],Hygroscopicity by KF,[6],Not hygroscopic
rasagiline citrate,hygroscopicity compared to rasagiline base and other rasagiline salts,[7]; Tables 22b and 22c,highest hygroscopicity
same,water solubility compared to rasagiline base and other rasagiline salts,[2]; Tables 22b and 22c,highest water solubility
O=C(O)CC(O)(CC(=O)O)C(=O)O [citric acid],Hygroscopicity by KF,[6],low
C#CCN[C@@H]1CCc2ccccc21.O=C(O)CC(O)(CC(=O)O)C(=O)O [Example 19.17],pH (after extraction of R-PAI),[5],(3.41)
C[C@@H]1CCCN1CCc1ccc2cc(-n3ncccc3=O)ccc2c1,Polynorpb,[1],Crystalline
CN1CCN(c2ccccc2C=C2SCCN(c3ccc(Cl)c(Cl)c3)C2=O)CC1,Polynorpb,[1],Crystalline
C#CCN[C@@H]1CCc2ccccc21.O=C(O)CC(O)(CC(=O)O)C(=O)O [Example 19.14],pH (after extraction of R-PAI),[5],3.49
same,pH,"[5]; value outside parentheses, before extraction of R-PAI",3.53
C#CCN[C@@H]1CCc2ccccc21.C#CCN[C@@H]1CCc2ccccc21.O=S(=O)(O)CCS(=O)(=O)O [Edisilate],Hygroscopicity by KF,[6],Not hygroscopic
C#CCN[C@@H]1CCc2ccccc21.C#CCN[C@@H]1CCc2ccccc21.C#CCN[C@@H]1CCc2ccccc21.O=C(O)CC(O)(CC(=O)O)C(=O)O [Example 4d],Changes on exposure to atmosphere (appearance),[7]; time of exposure 0:00 hrs:min,Powder
same,Changes on exposure to atmosphere (appearance),[7]; time of exposure 0:30 hrs:min,Powder
same,Changes on exposure to atmosphere (appearance),[7]; time of exposure 5:00 hrs:min,Semi-solid
same,Changes on exposure to atmosphere (appearance),[7]; time of exposure 6:00 hrs:min,Semi-solid
same,Appearance,[8]; storage 0 months,White powder
same,Appearance,[8]; storage 3 months,White powder
same,Appearance,[8]; storage 6 months,White powder
Phosphate,Water solubility,[9],>=720 mg/ml
C#CCN[C@@H]1CCc2ccccc21 [Solid R-PAI (Free Base)],Water solubility,[9],low
same,Hygroscopicity by KF,[6],Not hygroscopic
C#CCN[C@@H]1CCc2ccccc21.C#CCN[C@@H]1CCc2ccccc21.O=C(O)CC(O)(CC(=O)O)C(=O)O [Example 4c],Changes on exposure to atmosphere (appearance),[7]; time of exposure 0:00 hrs:min,Powder
same,Changes on exposure to atmosphere (appearance),[7]; time of exposure 0:50-1:00 hrs:min,Powder
same,Changes on exposure to atmosphere (appearance),[7]; time of exposure 0:30 hrs:min,Powder
same,Changes on exposure to atmosphere (appearance),[7]; [10],Powder
same,Changes on exposure to atmosphere (appearance),[7]; time of exposure 5:00 hrs:min,Lump powder
same,Appearance,[8]; storage 0 months,White powder
same,Appearance,[8]; storage 3 months,White powder
same,Appearance,[8]; storage 6 months,White powder
